Molecular target: T1, S1P5 receptors (Homo sapiens, UniProt Q9H228)
T1 construct: expressed in transfected cells; host or cells: CHO cells (membranes)
Assay: [35S]-GTPγS binding assay with CHO-S1P5 receptor membranes
Type: biochemical
Conditions: membranes of CHO cells expressing recombinant S1P5 receptors; measure of S1P5 agonism
Procedure: CHO cells expressing recombinant S1P5 receptors were cultured in 500 cm^2 culture trays and, once confluent, rinsed and detached with cell-lifting buffer (10 mM HEPES, 154 mM NaCl, 6.85 mM EDTA, pH 7.4). Cells were then pelleted by centrifugation, resuspended, and homogenized in membrane preparation buffer (10 mM HEPES and 10 mM EDTA, pH 7.4) using a Polytron PT 1200E homogenizer (Kinematica, Luzern, Switzerland). Cellular proteins were pelleted by centrifugation at 48,000×g at 4° C. for 30 minutes. The resulting supernatant was discarded, and the pellet was re-suspended again in membrane preparation buffer, homogenized for a second time, and then centrifuged again as described above. The final cellular protein pellet was suspended in ice cold resuspension buffer (10 mM HEPES and 0.1 mM EDTA, pH 7.4), divided into aliquots, and stored at −80° C. until use.
Functional binding assays for [^35]-GTPγS were performed in 96-well non-binding surface plates with a final volume of 200 μL. The test compounds were serially diluted in DMSO and added to assay plates using a Tecan D300E digital printer with a total volume of […]. The control sphingosine-1-phosphate (SiP) was prepared separately by preparing a 400 μM stock solution from a 100 nmol pellet of SiP in 10 mM Na2CO3 with 2% […]. The serial dilution of SiP was done using complete assay buffer (20 mM HEPES, 10 mM MgCl2, 100 mM NaCl, 1 mM EDTA, 0.1% fatty acid free bovine serum albumin (BSA), and 30 μg/mL saponin, pH 7.4) and transferred to wells already containing 0.4 μL DMSO. All the wells were then loaded to a total volume of 40 μL of complete assay buffer, except the non-specific binding (NSB) wells. For NSB wells, 40 μL/well of 50 μM GTPγS (Sigma Aldrich, cat #G8634, St. Louis, MO) was added to wells containing 0.4 μL of DMSO. The assay was started by the addition of 120 μL/well of CHO-S1P receptor membrane solution containing 40 μg/mL of membrane protein, 16.67 μM guanosine diphosphate (GDP; Sigma Aldrich, cat #G7127, St. Louis, MO), and 2.5 mg/mL of WGA PVT SPA beads in complete buffer. Assay plates were then sealed and incubated at room temperature with gentle agitation for 30 minutes. Next, 40 μL/well of 1 nM of [^35]-GTPγS (PerkinElmer, cat #NEG030X250UC, Waltham, MA) in basic assay buffer (20 mM HEPES, 10 mM MgCl2, 100 mM NaCl, and 1 mM EDTA, pH7.4) was added to the assay plates to yield a final concentration of 200 pM and the plates were further incubated for 40 minutes at room temperature with gentle agitation. The assay was terminated by centrifugation of the plates at 1000 rpm for 3 minutes using an Eppendorf 5810R centrifuge (Eppendorf, Hamburg, Germany) and G protein bound radioactivity was quantitated using a MicroBeta2 microplate scintillation counter (PerkinElmer, Waltham, MA). As G protein bound radioactivity directly correlates to receptor activation and coupling to the G protein, this assay is a measure of S1P5 agonism.

T1 sequence (Q9H228 whole entry): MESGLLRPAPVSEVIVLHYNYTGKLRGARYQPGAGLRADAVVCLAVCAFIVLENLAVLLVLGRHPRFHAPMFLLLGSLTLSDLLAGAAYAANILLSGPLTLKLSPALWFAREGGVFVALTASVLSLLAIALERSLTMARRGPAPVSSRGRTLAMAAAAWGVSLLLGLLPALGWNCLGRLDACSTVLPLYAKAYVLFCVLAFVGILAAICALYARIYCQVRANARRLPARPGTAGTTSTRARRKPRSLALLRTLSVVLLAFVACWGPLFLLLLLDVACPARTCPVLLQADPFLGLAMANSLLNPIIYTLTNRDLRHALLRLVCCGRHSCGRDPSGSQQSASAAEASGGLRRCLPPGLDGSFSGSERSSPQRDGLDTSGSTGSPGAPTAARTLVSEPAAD

SMILES | EC50
Cc1cc(C2CN(c3c(Cl)cccc3Cl)C2)c(C)cc1CN1CCC(C(=O)O)CC1 [Compound 19, 1-(4-(1-(2,6-dichlorophenyl)azetidin-3-yl)-2,5-dimethylbenzyl)piperidine-4-carboxylic acid] | ≤ 10 nM
Cc1cc(CN2CCC(C(=O)O)CC2)cc(C)c1C1CN(c2c(Cl)cccc2Cl)C1 [Compound 20, 1-(4-(1-(2,6-dichlorophenyl)azetidin-3-yl)-3,5-dimethylbenzyl)piperidine-4-carboxylic acid] | ≤ 10 nM
O=C(O)C1CCN(Cc2ccc(C3CN(c4c(Cl)cccc4Cl)C3)nc2)CC1 [Compound 21, 1-((6-(1-(2,6-dichlorophenyl)azetidin-3-yl)pyridin-3-yl)methyl)piperidine-4-carboxylic acid] | 10 to 100 nM
O=C(O)C1CCN(Cc2ccc(C3CN(c4c(Cl)cccc4Cl)C3)c(F)c2)CC1 [Compound 22, 1-(4-(1-(2,6-dichlorophenyl)azetidin-3-yl)-3-fluorobenzyl)piperidine-4-carboxylic acid] | ≤ 10 nM
O=C(O)C1CCN(Cc2ccc(C3CN(c4c(Cl)cccc4Cl)C3)cc2F)CC1 [Compound 23, 1-(4-(1-(2,6-dichlorophenyl)azetidin-3-yl)-2-fluorobenzyl)piperidine-4-carboxylic acid] | ≤ 10 nM
O=C(O)C1CCN(Cc2ccc(N3CC(c4c(Cl)cccc4Cl)C3)cc2)CC1 [Compound 24, 1-(4-(3-(2,6-dichlorophenyl)azetidin-1-yl)benzyl)piperidine-4-carboxylic acid] | 10 to 100 nM
O=C(O)C1CCN(Cc2ccc(N3CC(c4c(F)cccc4F)C3)cc2)CC1 [Compound 27, 1-(4-(3-(2,6-difluorophenyl)azetidin-1-yl)benzyl)piperidine-4-carboxylic acid] | 100 to 1000 nM
Cc1cc(N2CC(c3c(Cl)cccc3Cl)C2)cc(C)c1CN1CCC(C(=O)O)CC1 [Compound 28, 1-(4-(3-(2,6-dichlorophenyl)azetidin-1-yl)-2,6-dimethylbenzyl)piperidine-4-carboxylic acid] | ≤ 10 nM
O=C(O)C1CCN(Cc2ccc(N3CC(c4c(Cl)cccc4Cl)C3)cn2)CC1 [Compound 29, 1-((5-(3-(2,6-dichlorophenyl)azetidin-1-yl)pyridin-2-yl)methyl)piperidine-4-carboxylic acid] | 10 to 100 nM
Cc1cc(N2CC(c3c(Cl)cccc3Cl)C2)c(C)cc1CN1CCC(C(=O)O)CC1 [Compound 30, 1-(4-(3-(2,6-dichlorophenyl)azetidin-1-yl)-2,5-dimethylbenzyl)piperidine-4-carboxylic acid] | ≤ 10 nM
Cc1cc(CN2CCC(C(=O)O)CC2)cc(C)c1N1CC(c2c(Cl)cccc2Cl)C1 [Compound 31, 1-(4-(3-(2,6-dichlorophenyl)azetidin-1-yl)-3,5-dimethylbenzyl)piperidine-4-carboxylic acid] | ≤ 10 nM
O=C(O)C1CCN(Cc2ccc(N3CC(c4c(Cl)cccc4Cl)C3)nc2)CC1 [Compound 32, 1-((6-(3-(2,6-dichlorophenyl)azetidin-1-yl)pyridin-3-yl)methyl)piperidine-4-carboxylic acid] | 10 to 100 nM
O=C(O)C1CCN(Cc2ccc(N3CC(c4c(Cl)cccc4Cl)C3)cc2F)CC1 [Compound 33, 1-(4-(3-(2,6-dichlorophenyl)azetidin-1-yl)-2-fluorobenzyl)piperidine-4-carboxylic acid] | 10 to 100 nM
O=C(O)C1CCN(Cc2ccc(N3CC(c4c(Cl)cccc4Cl)C3)c(F)c2)CC1 [Compound 34, 1-(4-(3-(2,6-dichlorophenyl)azetidin-1-yl)-3-fluorobenzyl)piperidine-4-carboxylic acid] | ≤ 10 nM
O=C(O)C1CCN(Cc2ccc(N3CC(F)(c4c(Cl)cccc4Cl)C3)cc2)CC1 [Compound 35, 1-(4-(3-(2,6-dichlorophenyl)-3-fluoroazetidin-1-yl)benzyl)piperidine-4-carboxylic acid] | 1000 to 10000 nM
Cc1cc(CN2CCC(C(=O)O)CC2)cc(C)c1N1CC(F)(c2c(Cl)cccc2Cl)C1 [Compound 36, 1-(4-(3-(2,6-dichlorophenyl)-3-fluoroazetidin-1-yl)-3,5-dimethylbenzyl)-piperidine-4-carboxylic acid] | 10 to 100 nM

SMILES | EC50
Cc1cc(N2CC(F)(c3c(Cl)cccc3Cl)C2)cc(C)c1CN1CCC(C(=O)O)CC1 [Compound 37, 1-(4-(3-(2,6-dichlorophenyl)-3-fluoroazetidin-1-yl)-2,6-dimethylbenzyl)-piperidine-4-carboxylic acid] | 10 to 100 nM
O=C(O)C1CCN(Cc2ccc(C3CN(c4ccccc4)C3)cc2)CC1 [Compound 39, 1-(4-(1-phenylazetidin-3-yl)benzyl)piperidine-4-carboxylic acid] | 1000 to 10000 nM
O=C(O)C1CCN(Cc2ccc(C3CN(c4ccccc4F)C3)cc2)CC1 [Compound 40, 1-(4-(1-(2-fluorophenyl)azetidin-3-yl)benzyl)piperidine-4-carboxylic acid] | 100 to 1000 nM
O=C(O)C1CCN(Cc2ccc(C3CN(c4cccc(F)c4)C3)cc2)CC1 [Compound 41, 1-(4-(1-(3-fluorophenyl)azetidin-3-yl)benzyl)piperidine-4-carboxylic acid] | 1000 to 10000 nM
O=C(O)C1CCN(Cc2ccc(C3CN(c4ccc(C5CC5)c(Cl)c4)C3)cc2)CC1 [Compound 42, 1-(4-(1-(3-chloro-4-cyclopropylphenyl)azetidin-3-yl)benzyl)piperidine-4-carboxylic acid] | 100 to 1000 nM
O=C(O)C1CCN(Cc2ccc(C3CN(c4ccc(C5CC5)cc4)C3)cc2)CC1 [Compound 43, 1-(4-(1-(4-cyclopropylphenyl)azetidin-3-yl)benzyl)piperidine-4-carboxylic acid] | 1000 to 10000 nM
Cc1cc(C2CN(c3c(F)cccc3F)C2)cc(C)c1CN1CCC(C(=O)O)CC1 [Compound 44, 1-(4-(1-(2,6-difluorophenyl)azetidin-3-yl)-2,6-dimethylbenzyl)piperidine-4-carboxylic acid] | 10 to 100 nM
Cc1cc(C2CN(c3ccccc3)C2)cc(C)c1CN1CCC(C(=O)O)CC1 [Compound 45, 1-(2,6-dimethyl-4-(1-phenylazetidin-3-yl)benzyl)piperidine-4-carboxylic acid] | 100 to 1000 nM
Cc1cc(C2CN(c3ccccc3F)C2)cc(C)c1CN1CCC(C(=O)O)CC1 [Compound 46, 1-(4-(1-(2-fluorophenyl)azetidin-3-yl)-2,6-dimethylbenzyl)piperidine-4-carboxylic acid] | 10 to 100 nM
Cc1cc(C2CN(c3cccc(F)c3)C2)cc(C)c1CN1CCC(C(=O)O)CC1 [Compound 47, 1-(4-(1-(3-fluorophenyl)azetidin-3-yl)-2,6-dimethylbenzyl)piperidine-4-carboxylic acid] | 100 to 1000 nM
Cc1cc(C2CN(c3ccc(C4CC4)cc3)C2)cc(C)c1CN1CCC(C(=O)O)CC1 [Compound 48, 1-(4-(1-(4-cyclopropylphenyl)azetidin-3-yl)-2,6-dimethylbenzyl)piperidine-4-carboxylic acid] | 1000 to 10000 nM
Cc1cc(C2CN(c3ccc(C4CC4)c(Cl)c3)C2)cc(C)c1CN1CCC(C(=O)O)CC1 [Compound 49, 1-(4-(1-(3-chloro-4-cyclopropylphenyl)azetidin-3-yl)-2,6-dimethylbenzyl)-piperidine-4-carboxylic acid] | 100 to 1000 nM
Cc1cc(C2CN(c3c(Cl)cccc3Cl)C2)cc(F)c1CN1CCC(C(=O)O)CC1 [Compound 50, 1-(4-(1-(2,6-dichlorophenyl)azetidin-3-yl)-2-fluoro-6-methylbenzyl)-piperidine-4-carboxylic acid] | ≤ 10 nM
Cc1cc(C2CN(c3c(Cl)cccc3Cl)C2)cc(Cl)c1CN1CCC(C(=O)O)CC1 [Compound 51, 1-(2-chloro-4-(1-(2,6-dichlorophenyl)azetidin-3-yl)-6-methylbenzyl)-piperidine-4-carboxylic acid] | ≤ 10 nM
CCc1cc(C2CN(c3c(Cl)cccc3Cl)C2)cc(CC)c1CN1CCC(C(=O)O)CC1 [Compound 52, 1-(4-(1-(2,6-dichlorophenyl)azetidin-3-yl)-2,6-diethylbenzyl)piperidine-4-carboxylic acid] | ≤ 10 nM
